Reference: BindingDB's records for doi:10.1021/jm00011a006 (University of Minnesota, 1995)

target: Aldehyde dehydrogenase (Saccharomyces cerevisiae); experiment: In vitro inhibition against yeast Aldehyde dehydrogenase

Q: For CCOC(=O)On1nnc2ccccc21 [Carbonic acid benzotriazol-1-yl ester ethyl ester], which IC50 is on record?
A: Its IC50 is 270 µM.

Q: Which IC50 does the source give for CCOC(=O)ON1C(=O)c2ccccc2S1(=O)=O [Carbonic acid ethyl ester 1,1,3-trioxo-1,3-dihydro-1lambda*6*-benzo[d]isothiazol-2-yl ester] here?
A: Its IC50 is 56 µM.

Q: Which IC50 does the source give for CCOC(=O)ON(C(=O)OCC)S(=O)(=O)c1ccc(Cl)cc1 [ethyl (4-chlorophenyl)sulfonyl[(ethoxycarbonyl)oxy]carbamate] here?
A: The IC50 was 24 µM.
